Legend:
[1] = In Vitro Microsome Stability Assay (human); assay type: in vitro ADME; settings: human liver microsomes, 30 min w/ NADPH
Summary of the method: (§1)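 The value reported is the percentage of parent left after 30 min, calculated from analyte/IS peak-area ratios relative to time zero by LC-MS/MS. Incubations ran at 37° C in 0.1 M potassium phosphate with NADPH and microsomes (stock 20 mg/mL), with compound added from a 0.25 mM DMSO stock. Acetonitrile containing IS stopped the reactions.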

[2] = tested on: multiple myeloma cell line U266B1; experiment: U266 Cell Viability Assay; assay type: cell-based, human; settings: Homo sapiens, U-266; 48 hr, U266, Celltiter-Glo
Summary of the method: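 U266B1 myeloma cells in RPMI 1640 with 10% FBS were treated with compound dilutions for 48 h at 37° C, 5% CO2. Viability was read as CellTiter-Glo luminescence. Data for structures drawn without stereochemistry refer to stereoisomer mixtures.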

[3] = In Vitro Microsome Stability Assay (mouse); assay type: in vitro ADME; settings: mouse liver microsomes, 30 min w/ NADPH
Summary of the method: as §1

[4] = In Vitro Microsome Stability Assay (rat); assay type: in vitro ADME; settings: rat liver microsomes, 30 min w/ NADPH
Summary of the method: as §1

[5] = tested on: full length TNFα (amino acids 1-233) fused to Gaussia Luciferase; experiment: Dox Induced TNFα-FL-Gluc Assay; assay type: cell-based; settings: 24 hr, Dox inducible, 293FRT/TO cells; read-out: 24 hr Dox Inducible TNFaFLGluc 293FRT/TO: Mean IC50
Summary of the method: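 Stable Flp-In 293 T-REx line expressing doxycycline-inducible full-length TNFα fused to Gaussia luciferase; cells plated the day before, then treated with compound dilutions in doxycycline-containing medium at 37° C, 5% CO2. Unspecified stereocentres mean stereoisomer mixtures were tested.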

[6] = tested on: multiple myeloma cell line NCl-H929; experiment: H929 Cell Viability Assay; assay type: cell-based, human; settings: Homo sapiens, NCI-H929, 48 h, H929, Celltiter-Glo
Summary of the method: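 NCI-H929 myeloma cells in RPMI 1640 with 10% FBS were treated with compound dilutions for 48 h at 37 °C, and viability was then read by CellTiter-Glo luminescence. Compounds drawn without stereochemistry were tested as stereoisomer mixtures.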

[7] = tested on: full length IL-2 (amino acids 1-153) fused to Gaussia Luciferase; experiment: Dox Induced IL2-FL-Gluc Assay; assay type: cell-based; settings: 24 hr, Dox inducible, 293FRT/TO cells; read-out: 24 hr Dox Inducible IL2FLGluc 293FRT/TO: Mean IC50
Summary of the method: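 Flp-In 293 T-REx stable line expressing full-length IL-2 (aa 1-153) with C-terminal Gaussia luciferase fusion under doxycycline-inducible control. Cells plated the day before; compound dilutions added in DMSO/media containing doxycycline, incubated at 37° C, 5% CO2.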

[8] = tested on: PD1 signal sequence plus 10 amino acids fused to Gaussia Luciferase (PD1-ss+10aa/Gaussia Luciferase); experiment: Dox Induced PD1-ss-Gluc Assay; assay type: cell-based; settings: 24 hr, Dox inducible, 293FRT/TO cells; read-out: 24 hr Dox Inducible PD1ssGluc 293FRT/TO: Mean IC50
Summary of the method: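 Stable Flp-In 293 T-REx line expressing the fusion under tetracycline-inducible control, plated the day before assay. Compound dilutions added with doxycycline and incubated at 37 °C, 5% CO2; unspecified stereocentres mean data refer to stereoisomer mixtures.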

[9] = In Vitro Microsome Stability Assay (monkey); assay type: in vitro ADME; settings: monkey liver microsomes, 30 min w/ NADPH
Summary of the method: as §1

| Liver Microsome Stability-% Left after 30 min w/ NADPH (%) Human [1] [%] | EC50 [2] [nM] | Liver Microsome Stability-% Left after 30 min w/ NADPH (%) Mouse [3] [%] | Liver Microsome Stability-% Left after 30 min w/ NADPH (%) Rat [4] [%] | IC50 [5] [nM] | EC50 [6] [nM] | IC50 [7] [nM] | IC50 [8] [nM] | Liver Microsome Stability-% Left after 30 min w/ NADPH (%) Monkey [9] [%] | Structure (SMILES) |
| --- | --- | --- | --- | --- | --- | --- | --- | --- | --- |
| 8.84 | > 25000 | 13.2 | 17.1 | 947 | 2400 | 156 | 73.9 | 12.5 | COc1cccc2c1CCN(S(=O)(=O)N1CCCN(CC3CCCCC3)CCCN(S(=O)(=O)c3ccc(N(C)C)cc3)C[C@H](C)C1)C2 [A138, 4-{[(3S)-9-(cyclohexylmethyl)-5-[(5-methoxy-1,2,3,4-tetrahydroisoquinolin-2-yl)sulfonyl]-3-methyl-1,5,9-triazacyclododecan-1-yl]sulfonyl}-N,N-dimethylaniline] |
| 0.41 | > 25000 | 3.68 | 0.56 | 3010 | > 25000 | 808 | 492 | 1.56 | COCCN1CCCN(S(=O)(=O)c2ccc(N(C)C)cc2)C[C@H](C)CN(S(=O)(=O)N2CCc3cc(Cl)ccc3C2)CCC1 [A140, 4-{[(3S)-5-[(6-chloro-1,2,3,4-tetrahydroisoquinolin-2-yl)sulfonyl]-9-(2-methoxyethyl)-3-methyl-1,5,9-triazacyclododecan-1-yl]sulfonyl}-N,N-dimethylaniline] |
| 0.26 | > 25000 | 0.48 | 1.14 | 4240 | 9110 | 863 | 431 | 0.66 | CC(C)N1CCCN(S(=O)(=O)c2ccc(N(C)C)cc2)C[C@H](C)CN(S(=O)(=O)N2CCc3cc(Cl)ccc3C2)CCC1 [A141, 4-{[(3S)-5-[(6-chloro-1,2,3,4-tetrahydroisoquinolin-2-yl)sulfonyl]-3-methyl-9-(propan-2-yl)-1,5,9-triazacyclododecan-1-yl]sulfonyl}-N,N-dimethylaniline] |
| 11.8 | > 25000 | 16 | 22.6 | 741 | 1450 | 67 | 38.2 | 3.89 | C[C@H]1CN(S(=O)(=O)c2ccc(N(C)C)cc2)CCCN(CC2=CCCC2)CCCN(S(=O)(=O)N2CCc3cc(Cl)ccc3C2)C1 [A142] |
| 2.76 | > 25000 | 0.74 | 1.16 | > 25000 | > 25000 | > 25000 | 4120 | 0.99 | C[C@H]1CCN(S(=O)(=O)c2ccc(N(C)C)cc2)CCCN(CC2CCCCC2)CCCN1S(=O)(=O)N1CCc2cc(Cl)ccc2C1 [A147, 4-{[(4 S)-5-[(6-chloro-1,2,3,4-tetrahydroisoquinolin-2-yl)sulfonyl]-9-(cyclohexylmethyl)-4-methyl-1,5,9-triazacyclododecan-1-yl]sulfonyl}-N,N-dimethylaniline] |
| 0.52 | > 25000 | 1.59 | 1.29 | > 25000 | > 25000 | 1120 | 926 | 0.67 | C[C@@H]1CCN(S(=O)(=O)c2ccc(N(C)C)cc2)CCCN(CC2CCCCC2)CCCN1S(=O)(=O)N1CCc2cc(Cl)ccc2C1 [A148, 4-{[(4 R)-5-[(6-chloro-1,2,3,4-tetrahydroisoquinolin-2-yl)sulfonyl]-9-(cyclohexylmethyl)-4-methyl-1,5,9-triazacyclododecan-1-yl]sulfonyl}-N,N-dimethylaniline] |
| 0.44 | > 25000 | 0.83 | 0.47 | > 25000 | > 25000 | > 25000 | > 25000 | 0.96 | C[C@@H]1CCN(S(=O)(=O)N2CCc3cc(Cl)ccc3C2)CCCN(CC2CCCCC2)CCCN1S(=O)(=O)c1ccc(N(C)C)cc1 [A149, 4-{[(2 R)-5-[(6-chloro-1,2,3,4-tetrahydroisoquinolin-2-yl)sulfonyl]-9-(cyclohexylmethyl)-2-methyl-1,5,9-triazacyclododecan-1-yl]sulfonyl}-N,N-dimethylaniline] |
| 4.6 | > 25000 | 1.38 | 2.02 | 468 | 2000 | 41.3 | 30.3 | 2.2 | C[C@H]1CCN(S(=O)(=O)N2CCc3cc(Cl)ccc3C2)CCCN(CC2CCCCC2)CCCN1S(=O)(=O)c1ccc(N(C)C)cc1 [A150, 4-{[(2 S)-5-[(6-chloro-1,2,3,4-tetrahydroisoquinolin-2-yl)sulfonyl]-9-(cyclohexylmethyl)-2-methyl-1,5,9-triazacyclododecan-1-yl]sulfonyl}-N,N-dimethylaniline] |
| 3.69 | > 25000 | 5.06 | 3.6 | 1030 | 2170 | 174 | 81.5 | 3.22 | CC(C)CN1CCCN(S(=O)(=O)c2ccc(N(C)C)cc2)C[C@H](C)CN(S(=O)(=O)N2CCc3cc(Cl)ccc3C2)CCC1 [A152] |
| 2.57 | > 25000 | 0.87 | 6.23 | > 25000 | > 25000 | 1260 | 1290 | 1.26 | C[C@H]1CN(S(=O)(=O)c2ccc(N(C)C)cc2)CCCN(CC2CCCCC2)CCCN(S(=O)(=O)N2CCN(C(=O)OC(C)(C)C)CC2)C1 [A153, tert-butyl 4-{[(3S)-9-(cyclohexylmethyl)-5-[4-(dimethylamino)benzenesulfonyl]-3-methyl-1,5,9-triazacyclododecan-1-yl]sulfonyl}piperazine-1-carboxylate] |
| 7.33 | > 25000 | 17.5 | 12.3 | 504 | 749 | 58.7 | 14.9 | 10.2 | COc1ccccc1N1CCN(S(=O)(=O)N2CCCN(CC3CCCCC3)CCCN(S(=O)(=O)c3ccc(N(C)C)cc3)C[C@H](C)C2)CC1 [A154, 4-{[(3S)-9-(cyclohexylmethyl)-5-{[4-(2-methoxyphenyl)piperazin-1-yl]sulfonyl}-3-methyl-1,5,9-triazacyclododecan-1-yl]sulfonyl}-N,N-dimethylaniline] |
| 81.3 | > 25000 | 75.6 | 82.1 | 1830 | 3710 | 207 | 92.5 | 80.6 | Cc1cccc(CN2CCCN(S(=O)(=O)c3ccc(N(C)C)cc3)C[C@H](C)CN(S(=O)(=O)N3CCc4cc(Cl)ccc4C3)CCC2)c1 [A156, 4-{[(3S)-5-[(6-chloro-1,2,3,4-tetrahydroisoquinolin-2-yl)sulfonyl]-3-methyl-9-[(3-methylphenyl)methyl]-1,5,9-triazacyclododecan-1-yl]sulfonyl}-N,N-dimethylaniline] |
